This assay relates to P388. In words: In vivo antitumor activity against mouse P388 cells at 40 mg/kg. The format is functional.

Usually T/C stands for the result in the treated group divided by that in the control group, in per cent.

In turn, `COc1cc([C@@H]2c3cc4c(cc3[C@H](O)[C@H]3COC(=O)[C@H]23)OCO4)cc(OC)c1O` displayed a T/C of 144%.
The figure for `COc1ccc2c(c1OC)[C@@H](c1ccc3c(c1)OCO3)C1=C(COC1=O)C2` is 144%; for `COc1cc([C@@H]2c3cc4c(cc3C[C@H]3COC(=O)[C@@H]32)OCO4)cc(OC)c1OC` [DESOXYPODOPHYLLOTOXIN] it is 144%.
The value for `COc1cc([C@@H]2c3cc4c(cc3[C@H](O)[C@H]3COC(=O)[C@H]23)OCO4)cc(OC)c1OC` [PODOFILOX] was 144%; that for `O=C1OC[C@@H]2Cc3cc4c(cc3[C@@H](c3ccc5c(c3)OCO5)[C@@H]12)OCO4` [POLYGAMAIN] was 144%.
The figure for `COc1ccc2c(c1OC)[C@@H](c1ccc3c(c1)OCO3)[C@H]1C(=O)OC[C@@H]1C2` [POLYGAMATIN] is 144%.

(Values after ChEMBL document CHEMBL1158648, “The Lignans of Polygala polygama (Polygalaceae): Deoxypodophyllotoxin and Three New Lignan Lactones” (1979).)
